Values belong to the molecule of their own block, whether it stands above or below them.
Tests used:
5-8 kDa immunophilin = details: cited from earlier work
52 kDa immunophilin = details: Davis et al. 2000; cited from earlier work
8.4 kDa immunophilin [1] = target: T1, 8.4 kDa immunophilin (Bos taurus, UniProt P62992); experiment: Binding of [mebmt-beta-3H]-CsA to the 8.4 kDa immunophilin; parameters: species or system calf; details: too low to measure; dissociation constant could not be determined
T1 construct: from tissue; host or cells: calf thymus
T1 sequence (P62992 1-74 limits assumed): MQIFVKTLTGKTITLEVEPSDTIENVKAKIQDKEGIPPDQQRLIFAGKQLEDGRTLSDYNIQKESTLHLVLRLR
Source text: A dissociation constant for [mebmt-beta-3H]-CsA with the 8.4 kDa immunophilin could not be determined, as the binding of this drug to the protein was too low to measure (0.13%).

8.4 kDa immunophilin [2] = target: T1, 8.4 kDa immunophilin; experiment: Displacement of tritiated FK-506 from the 8.4 kDa immunophilin by RAP; format: binding, calf; details: displacement of tritiated FK-506 by RAP; read-out: calculated Kd
Source text: An immunophilin protein binding assay (“IBA”) carried out in accordance with this invention can be performed by solution phase or solid phase methods. The basic principle underlying each method is the same, and is described in, e.g., Davis et al., Clin. Biochem. 33:1(2000) and the Soldin patents listed above. Briefly, in a competitive IBA, a competition equilibrium is set up between a tracer amount of labeled drug and the corresponding drug in unknown samples containing the drug or biologically-active metabolites for binding to specific binding sites on an immunophilin. Following attainment of equilibrium, the amount of labeled drug bound to the immunophilin is determined. The amount of labeled drug bound will be reduced in proportion to the amount of analyte in a biological sample being analyzed. The quantitative relationship between the reduction of immunophilin-bound labeled drug and the concentration of the analyte in the unknown sample is determined by reference to a standard calibration curve. […] The amount of labeled drug bound to an immunophilin need not be determined directly; it may be determined by subtracting from the total amount of label added […] in the solution at equilibrium. […]

[3] = cited from earlier work; for fraction in the blood in the form of the parent compound: patients; for metabolites as share of all drug species in blood: rapamycin: trough blood samples
8.4 kDa immunophilin [4] = target: T1, 8.4 kDa immunophilin; experiment: Saturation analysis of tritiated FK-506 binding to calf thymus 8.4 kDa immunophilin (Scatchard, Hill plots); details: tritiated FK-506, calf thymus 8.4 kDa immunophilin, EBDA/LIGAND
Source text: Analytical data on purified immunophilins may be obtained conventionally. Association constants, specific binding activities, and numbers and types of binding sites can be obtained from Scatchard and Hill plots, using EBDA and LIGAND software. Isoelectric points (“pI”) can be obtained by isofocussing techniques. To obtain amino acid composition data, samples can be hydrolyzed by HCl gas in the presence of internal standards (e.g., norvaline and sarcosine), the products derivatized with a fluorescent reagent, and the derivatized amino acids separated on a Hewlett-Packard AMINO QUANT Analyzer. […]
An immunophilin protein binding assay (“IBA”) carried out in accordance with this invention can be performed by solution phase or solid phase methods. […] Following attainment of equilibrium, the amount of labeled drug bound to the immunophilin is determined. The amount of labeled drug bound will be reduced in proportion to the amount of analyte in a biological sample being analyzed. The quantitative relationship between the reduction of immunophilin-bound labeled drug and the concentration of the analyte in the unknown sample is determined by reference to a standard calibration curve. […] The amount of labeled drug bound to an immunophilin need not be determined directly; it may be determined by subtracting from the total amount of label added […] in the solution at equilibrium. […]

Molecule: (C1-C8 or C32-C36) OH sirolimus
binding to 5-8 kDa immunophilin (5-8 kDa immunophilin): substantially binds
binding to 52 kDa immunophilin (52 kDa immunophilin): substantially binds

binding of the drug to the protein (8.4 kDa immunophilin [1]): 0.13%
Molecule: cyclosporin A [CsA]

Kd (8.4 kDa immunophilin [2]): 0.08 nM
Molecule: CO[C@H]1C[C@@H]2CC[C@@H](C)[C@@](O)(O2)C(=O)C(=O)N2CCCC[C@H]2C(=O)O[C@H]([C@H](C)C[C@@H]2CC[C@@H](O)[C@H](OC)C2)CC(=O)[C@H](C)/C=C(\C)[C@@H](O)[C@@H](OC)C(=O)[C@H](C)C[C@H](C)/C=C/C=C/C=C/1C [RAP, rapamycin]
fraction in the blood in the form of the parent compound [3]: ½
metabolites as share of all drug species in blood [3]: at least 50%

Kd (8.4 kDa immunophilin [4]): 0.8 nM
Molecule: C=CC[C@@H]1/C=C(\C)C[C@H](C)C[C@H](OC)[C@H]2O[C@@](O)(C(=O)C(=O)N3CCCC[C@H]3C(=O)O[C@H](/C(C)=C/[C@@H]3CC[C@@H](O)[C@H](OC)C3)[C@H](C)[C@@H](O)CC1=O)[C@H](C)C[C@@H]2OC [FK-506]
fraction in the blood in the form of the parent compound [3]: ¾
metabolites as share of all drug species in blood [3]: about 30%

Molecule: (C9-C23)-OH-sirolimus
binding to 5-8 kDa immunophilin (5-8 kDa immunophilin): all but the fourth metabolite substantially binds
binding to 52 kDa immunophilin (52 kDa immunophilin): all but the fourth metabolite substantially binds

Molecule: 32,41-0-demethyl sirolimus
binding to 5-8 kDa immunophilin (5-8 kDa immunophilin): substantially binds
binding to 52 kDa immunophilin (52 kDa immunophilin): substantially binds

Molecule: 7-0-demethyl sirolimus
binding to 5-8 kDa immunophilin (5-8 kDa immunophilin): substantially binds
binding to 52 kDa immunophilin (52 kDa immunophilin): substantially binds

Molecule: 41-0-demethyl sirolimus
binding to 5-8 kDa immunophilin (5-8 kDa immunophilin): substantially binds
binding to 52 kDa immunophilin (52 kDa immunophilin): substantially binds
